Data from patent US20170189504A1, “NOVEL PEPTIDES AND COMBINATION OF PEPTIDES FOR USE IN IMMUNOTHERAPY AGAINST VARIOUS CANCERS” (immatics biotechnologies GmbH, priority 2015, published 2017).

Legend:
CD8+ T cells = assay: In vitro immunogenicity: T-cell priming with aAPCs loaded with peptide/MHC complexes and anti-CD28 antibody, pMHC multimer readout (Tables 19A, 19B); format: cell-based, human; conditions: for Share of positive wells (percent class): in vitro immunogenicity, healthy donors, three stimulation cycles; for Wells positive [%]: in vitro immunogenicity of HLA class I peptides, pMHC multimer readout after priming of CD8+ T cells
Experimental: In an aspect, the peptides are pre-screened for immunogenicity before being included in the warehouse. By way of example, and not limitation, the immunogenicity of the peptides included in the warehouse is determined by a method comprising in vitro T-cell priming through repeated stimulations of CD8+ T cells from healthy donors with artificial antigen presenting cells loaded with peptide/MHC complexes and anti-CD28 antibody.
In order to obtain information regarding the immunogenicity of the TUMAPs of the present invention, the inventors performed investigations using an in vitro T-cell priming assay based on repeated stimulations of CD8+ T cells with artificial antigen presenting cells (aAPCs) loaded with peptide/MHC complexes and anti-CD28 antibody.
In order to perform in vitro stimulations by artificial antigen presenting cells loaded with peptide-MHC complex (pMHC) and anti-CD28 antibody, the inventors first isolated CD8+ T cells from fresh HLA-A*02 leukapheresis products via positive selection using CD8 microbeads (Miltenyi Biotec, Bergisch-Gladbach, Germany) of healthy donors obtained from the University clinics Mannheim, Germany, after informed consent.
PBMCs and isolated CD8+ lymphocytes were incubated in T-cell medium (TCM) until use consisting of RPMI-Glutamax (Invitrogen, Karlsruhe, Germany) supplemented with 10% heat inactivated human AB serum (PAN-Biotech, Aidenbach, Germany), 100 U/ml Penicillin/100 μg/ml Streptomycin (Cambrex, Cologne, Germany), 1 mM sodium pyruvate (CC Pro, Oberdorla, Germany), 20 μg/ml Gentamycin (Cambrex). 2.5 ng/ml IL7 (PromoCell, Heidelberg, Germany) and 10 U/ml IL-2 (Novartis Pharma, Nurnberg, Germany) were also added to the TCM at this step.
Generation of pMHC/anti-CD28 coated beads, T-cell stimulations and readout was performed in a highly defined in vitro system using four different pMHC molecules per stimulation condition and 8 different pMHC molecules per readout condition.
The purified co-stimulatory mouse IgG2a anti human CD28 Ab 9.3 (Jung et al., 1987) was chemically biotinylated using Sulfo-N-hydroxysuccinimidobiotin as recommended by the manufacturer (Perbio, Bonn, Germany). Beads used were 5.6 μm diameter streptavidin coated polystyrene particles (Bangs Laboratories, Illinois, USA).
pMHC used for positive and negative control stimulations were A*0201/MLA-001 (peptide […] (SEQ ID NO. 303) from modified Melan-A/MART-1) and A*0201/DDX5-001 ([…] from DDX5, SEQ ID NO. 304), respectively.
800.000 beads/200 μl were coated in 96-well plates in the presence of 4×12.5 ng different biotin-pMHC, washed and 600 ng biotin anti-CD28 were added subsequently in a volume of 200 μl. Stimulations were initiated in 96-well plates by co-incubating […] CD8+ T cells with 2×10^5 washed coated beads in 200 μl TCM supplemented with 5 ng/ml IL-12 (PromoCell) for 3 days at 37° C. Half of the medium was then exchanged by fresh TCM supplemented with 80 U/ml IL-2 and incubating was continued for 4 days at 37° C. This stimulation cycle was performed for a total of three times. For the pMHC multimer readout using 8 different pMHC molecules per condition, a two-dimensional combinatorial coding approach was used as previously described (Andersen et al., 2012) with minor modifications encompassing coupling to 5 different fluorochromes. Finally, multimeric analyses were performed by staining the cells with Live/dead near IR dye (Invitrogen, Karlsruhe, Germany), CD8-FITC antibody clone SK1 (BD, Heidelberg, Germany) and fluorescent pMHC multimers. For analysis, a BD LSRII SORP cytometer equipped with appropriate lasers and filters was used. Peptide specific cells were calculated as percentage of total CD8+ cells. Evaluation of multimeric analysis was done using the FlowJo software (Tree Star, Oreg., USA). In vitro priming of specific multimer+ CD8+ lymphocytes was detected by comparing to negative control stimulations.

HLA-A*02 = assay: MHC binding assay, UV-ligand exchange with β2m ELISA, HLA-A*02 (Table 20); set-up: species or system human; conditions: binding to HLA-A*02 ranged by peptide exchange yield (UV-ligand exchange, β2m ELISA)
Outline: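 Peptide–MHC complexes made by UV-ligand exchange of a UV-cleavable peptide, diluted 100-fold and captured on streptavidin plates. Stabilized complexes detected by HRP anti-β2m ELISA (1 h, 37° C, A450). Exchange yield derived against refolded HLA-A*02:01/MLA-001 monomer standards (15-500 ng/ml).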

290 (KIVDFSYSV; listed as Homo sapiens) [compound 290]
Share of positive wells (percent class) (CD8+ T cells): ++ (20%-49% = ++)

20 (GLSQITNQL; listed as Homo sapiens) [compound 20]
Wells positive [%] (CD8+ T cells): ++ (20%-49% = ++) | Peptide exchange (HLA-A*02): +++ (50%-75% = +++)

138 (ALLAKILQI; listed as Homo sapiens) [compound 138]
Wells positive [%] (CD8+ T cells): ++ (20%-49% = ++) | Peptide exchange (HLA-A*02): +++ (50%-75% = +++)

293 (FLVDGSWSI; listed as Homo sapiens) [compound 293]
Share of positive wells (percent class) (CD8+ T cells): + (<20% = +)

229 (AILAHLNTV; listed as Homo sapiens) [compound 229]
Wells positive [%] (CD8+ T cells): ++ (20%-49% = ++) | Peptide exchange (HLA-A*02): ++++ (≧75% = ++++)

296 (TYVDSSHTI; listed as Homo sapiens) [compound 296]
Share of positive wells (percent class) (CD8+ T cells): + (<20% = +)

11 (ALSPSYLTV; listed as Homo sapiens) [compound 11]
Wells positive [%] (CD8+ T cells): ++ (20%-49% = ++) | Peptide exchange (HLA-A*02): +++ (50%-75% = +++)

151 (SVLDSTAKV; listed as Homo sapiens) [compound 151]
Wells positive [%] (CD8+ T cells): ++ (20%-49% = ++) | Peptide exchange (HLA-A*02): ++ (20%-49% = ++)

295 (YYPGVILGF; listed as Homo sapiens) [compound 295]
Share of positive wells (percent class) (CD8+ T cells): ++ (20%-49% = ++)

12 (GLLPLLHRA; listed as Homo sapiens) [compound 12]
Wells positive [%] (CD8+ T cells): ++++ (≧70% = ++++) | Peptide exchange (HLA-A*02): ++++ (≧75% = ++++)

92 (GLLFSLRSV; listed as Homo sapiens) [compound 92]
Wells positive [%] (CD8+ T cells): ++ (20%-49% = ++) | Peptide exchange (HLA-A*02): ++++ (≧75% = ++++)

292 (GMMTAILGV; listed as Homo sapiens) [compound 292]
Share of positive wells (percent class) (CD8+ T cells): + (<20% = +)

235 (KIIDFLSAL; listed as Homo sapiens) [compound 235]
Wells positive [%] (CD8+ T cells): +++ (50%-69% = +++) | Peptide exchange (HLA-A*02): +++ (50%-75% = +++)

150 (VLYDRPLKI; listed as Homo sapiens) [compound 150]
Wells positive [%] (CD8+ T cells): ++ (20%-49% = ++) | Peptide exchange (HLA-A*02): +++ (50%-75% = +++)

96 (LLVSHLYLV; listed as Homo sapiens) [compound 96]
Wells positive [%] (CD8+ T cells): ++ (20%-49% = ++) | Peptide exchange (HLA-A*02): ++ (20%-49% = ++)

144 (ALLAFFPGL; listed as Homo sapiens) [compound 144]
Wells positive [%] (CD8+ T cells): +++ (50%-69% = +++) | Peptide exchange (HLA-A*02): +++ (50%-75% = +++)

297 (PFLQASPHF; listed as Homo sapiens) [compound 297]
Share of positive wells (percent class) (CD8+ T cells): ++ (20%-49% = ++)

291 (KLDETGNSL; listed as Homo sapiens) [compound 291]
Share of positive wells (percent class) (CD8+ T cells): + (<20% = +)

249 (GLCERLVSL; listed as Homo sapiens) [compound 249]
Wells positive [%] (CD8+ T cells): + (<20% = +) | Peptide exchange (HLA-A*02): ++++ (≧75% = ++++)

14 (ILAKDLFEI; listed as Homo sapiens) [compound 14]
Wells positive [%] (CD8+ T cells): ++ (20%-49% = ++) | Peptide exchange (HLA-A*02): ++++ (≧75% = ++++)

23 (SLFSDEFKV; listed as Homo sapiens) [compound 23]
Wells positive [%] (CD8+ T cells): ++++ (≧70% = ++++) | Peptide exchange (HLA-A*02): +++ (50%-75% = +++)

300 (AYVLRLETL; listed as Homo sapiens) [compound 300]
Share of positive wells (percent class) (CD8+ T cells): + (<20% = +)

301 (AYKPGALTF; listed as Homo sapiens) [compound 301]
Share of positive wells (percent class) (CD8+ T cells): + (<20% = +)

31 (TITETTVEV; listed as Homo sapiens) [compound 31]
Wells positive [%] (CD8+ T cells): + (<20% = +) | Peptide exchange (HLA-A*02): +++ (50%-75% = +++)

247 (ALYEGYATV; listed as Homo sapiens) [compound 247]
Wells positive [%] (CD8+ T cells): ++ (20%-49% = ++) | Peptide exchange (HLA-A*02): +++ (50%-75% = +++)

233 (HLFDAFVSV; listed as Homo sapiens) [compound 233]
Wells positive [%] (CD8+ T cells): ++ (20%-49% = ++) | Peptide exchange (HLA-A*02): +++ (50%-75% = +++)

1 (LLYPEPWSV; listed as Homo sapiens) [compound 1]
Wells positive [%] (CD8+ T cells): ++ (20%-49% = ++) | Peptide exchange (HLA-A*02): ++++ (≧75% = ++++)

149 (ILNTHITEL; listed as Homo sapiens) [compound 149]
Wells positive [%] (CD8+ T cells): + (<20% = +) | Peptide exchange (HLA-A*02): +++ (50%-75% = +++)

248 (YLDRFLAGV; listed as Homo sapiens) [compound 248]
Wells positive [%] (CD8+ T cells): ++ (20%-49% = ++) | Peptide exchange (HLA-A*02): ++++ (≧75% = ++++)

90 (FLQDLEQRL; listed as Homo sapiens) [compound 90]
Wells positive [%] (CD8+ T cells): + (<20% = +) | Peptide exchange (HLA-A*02): +++ (50%-75% = +++)

251 (ALSVLRLAL; listed as Homo sapiens) [compound 251]
Wells positive [%] (CD8+ T cells): ++ (20%-49% = ++) | Peptide exchange (HLA-A*02): +++ (50%-75% = +++)

29 (YLLDPSITL; listed as Homo sapiens) [compound 29]
Wells positive [%] (CD8+ T cells): + (<20% = +) | Peptide exchange (HLA-A*02): +++ (50%-75% = +++)

26 (ALQEELTEL; listed as Homo sapiens) [compound 26]
Wells positive [%] (CD8+ T cells): + (<20% = +) | Peptide exchange (HLA-A*02): +++ (50%-75% = +++)

141 (FLDKVLVAA; listed as Homo sapiens) [compound 141]
Wells positive [%] (CD8+ T cells): + (<20% = +) | Peptide exchange (HLA-A*02): +++ (50%-75% = +++)

4 (KLMPGTYTL; listed as Homo sapiens) [compound 4]
Wells positive [%] (CD8+ T cells): + (<20% = +) | Peptide exchange (HLA-A*02): ++++ (≧75% = ++++)

18 (ILLDLTDNRL; listed as Homo sapiens) [compound 18]
Wells positive [%] (CD8+ T cells): + (<20% = +) | Peptide exchange (HLA-A*02): +++ (50%-75% = +++)

6 (ALFDSLRHV; listed as Homo sapiens) [compound 6]
Wells positive [%] (CD8+ T cells): ++ (20%-49% = ++) | Peptide exchange (HLA-A*02): +++ (50%-75% = +++)

7 (ILDHEVPSL; listed as Homo sapiens) [compound 7]
Wells positive [%] (CD8+ T cells): ++ (20%-49% = ++) | Peptide exchange (HLA-A*02): +++ (50%-75% = +++)

298 (RYLEGTSCI; listed as Homo sapiens) [compound 298]
Share of positive wells (percent class) (CD8+ T cells): + (<20% = +)

5 (GIVAHIQEV; listed as Homo sapiens) [compound 5]
Wells positive [%] (CD8+ T cells): + (<20% = +) | Peptide exchange (HLA-A*02): +++ (50%-75% = +++)

232 (KIFPAALQLV; listed as Homo sapiens) [compound 232]
Wells positive [%] (CD8+ T cells): ++ (20%-49% = ++) | Peptide exchange (HLA-A*02): +++ (50%-75% = +++)

35 (FLLPFSTVYL; listed as Homo sapiens) [compound 35]
Wells positive [%] (CD8+ T cells): + (<20% = +) | Peptide exchange (HLA-A*02): +++ (50%-75% = +++)

230 (KLQNIMMLL; listed as Homo sapiens) [compound 230]
Wells positive [%] (CD8+ T cells): ++++ (≧70% = ++++) | Peptide exchange (HLA-A*02): ++ (20%-49% = ++)

27 (RLMEENWNA; listed as Homo sapiens) [compound 27]
Wells positive [%] (CD8+ T cells): +++ (50%-69% = +++) | Peptide exchange (HLA-A*02): +++ (50%-75% = +++)
